Source: patent US20250333406A1, “SULFONYL CYCLIC DERIVATIVES, AND COMPOSITIONS AND METHODS THEREOF” (Lysoway Therapeutics, Inc., priority 2023, published 2025)

Tested on: TFEB
Assay: TFEB Nuclear Translocation Assay
Type: cell-based
Conditions: read-out: EC50 of TFEB activation

Row | SMILES | EC50 [nM]
1 | CC(C)S(=O)(=O)n1ccc(S(=O)(=O)n2nc(N3CCN(c4ncc(F)cc4F)CC34CC4)c3c(Cl)cc(F)cc32)n1 [Compound 199, 4-chloro-3-[7-(3,5-difluoro-2-pyridyl)-4,7-diazaspiro [2.5]octan-4-yl]-6-fluoro-1-(1-isopropylsulfonylpyrazol-3-yl) sulfonyl-indazole] | ≤ 1000
2 | O=S(=O)(c1ccn(S(=O)(=O)C2CC2)c1)n1nc(N2CCN(c3ncc(F)cn3)CC23CC3)c2c(F)cc(F)cc21 [Compound 174, 1-((1-(cyclopropylsulfonyl)-1H-pyrrol-3-yl)sulfonyl)-4,6-difluoro-3-(7-(5-fluoropyrimidin-2-yl)-4,7-diazaspiro [2.5]octan-4-yl)-1H-indazole] | ≤ 1000
3 | CC(C)S(=O)(=O)c1ccc(S(=O)(=O)n2nc(N3CCN(c4ncc(F)cc4F)CC34CC4)c3c(Cl)cccc32)s1 [Compound 45, 4-chloro-3-[7-(3,5-difluoro-2-pyridyl)-4,7-diazaspiro [2.5]octan-4-yl]-1-[(5-isopropylsulfonyl-2-thienyl)sulfonyl]indazole] | ≤ 1000
4 | CC(C)S(=O)(=O)c1ccc(S(=O)(=O)n2nc(N3CCC(N(C)C)CC34CC4)c3c(Cl)cccc32)s1 (centres unmarked) [Compound 13, 4-[4-chloro-1-[(5-isopropylsulfonyl-2-thienyl)sulfonyl]indazol-3-yl]-N, N-dimethyl-4-azaspiro [2.5]octan-7-amine] | ≤ 1000
5 | O=S(=O)(c1ccc(S(=O)(=O)n2nc(N3CCN(c4ncc(F)cn4)CC34CC4)c3c(Cl)cccc32)cc1)C1CC1 [Compound 29, 4-chloro-1-((4-(cyclopropylsulfonyl)phenyl)sulfonyl)-3-(7-(5-fluoropyrimidin-2-yl)-4,7-diazaspiro [2.5]octan-4-yl)-1H-indazole] | ≤ 1000
6 | CC(C)S(=O)(=O)c1ccc(S(=O)(=O)n2nc(N3CCN(c4ncc(F)cn4)CC3C3CC3)c3c(Cl)cc(F)cc32)cc1 (centres unmarked) [Compound 51, 4-chloro-3-(2-cyclopropyl-4-(5-fluoropyrimidin-2-yl)piperazin-1-yl)-6-fluoro-1-((4-(isopropylsulfonyl)phenyl)sulfonyl)-1H-indazole] | ≤ 1000
7 | CN(C)S(=O)(=O)n1ccc(S(=O)(=O)n2nc(N3CCN(c4ncc(F)cn4)CC34CC4)c3c(Cl)cc(F)cc32)c1 [Compound 170, 3-[4-chloro-6-fluoro-3-[7-(5-fluoropyrimidin-2-yl)-4,7-diazaspiro [2.5]octan-4-yl]indazol-1-yl]sulfonyl-N, N-dimethyl-pyrrole-1-sulfonamide] | ≤ 1000
8 | Cc1cc(S(=O)(=O)n2nc(N3CCN(c4ncc(F)cc4F)CC34CC4)c3c(Cl)cc(F)cc32)c(C)n1S(=O)(=O)C(C)C [Compound 160, 4-chloro-3-[7-(3,5-difluoro-2-pyridyl)-4,7-diazaspiro [2.5]octan-4-yl]-6-fluoro-1-(1-isopropylsulfonyl-2,5-dimethyl-pyrrol-3-yl) sulfonyl-indazole] | ≤ 1000
9 | CC(C)S(=O)(=O)c1ccc(S(=O)(=O)n2nc(N3CCN(c4ncc(Cl)s4)CC34CC4)c3c(Cl)cccc32)s1 [Compound 46, 5-chloro-2-[4-[4-chloro-1-[(5-isopropylsulfonyl-2-thienyl)sulfonyl]indazol-3-yl]-4,7-diazaspiro [2.5]octan-7-yl]thiazole] | ≤ 1000
10 | CC(C)S(=O)(=O)c1ccc(S(=O)(=O)n2nc(N3CCN(c4ncc(F)cc4F)CC34CC4)c3c(Cl)cccc32)cc1 [Compound 24, 4-chloro-3-[7-(3,5-difluoro-2-pyridyl)-4,7-diazaspiro [2.5]octan-4-yl]-1-(4-isopropylsulfonylphenyl) sulfonyl-indazole] | ≤ 1000
11 | CC(C)(C)c1ccc(S(=O)(=O)n2nc(N3CCN(c4ncc(F)cn4)CC34CC4)c3c(Cl)cccc32)cc1 [Compound 94, 1-((4-(tert-butyl)phenyl)sulfonyl)-4-chloro-3-(7-(5-fluoropyrimidin-2-yl)-4,7-diazaspiro [2.5]octan-4-yl)-1H-indazole] | ≤ 1000
12 | CC(C)S(=O)(=O)c1ccc(S(=O)(=O)n2nc(N3CCN(c4ncc(F)cn4)CC34CC4)c3c(Cl)cccc32)cc1 [Compound 10, 4-chloro-3-[7-(5-fluoropyrimidin-2-yl)-4,7-diazaspiro [2.5]octan-4-yl]-1-(4-isopropylsulfonylphenyl) sulfonyl-indazole] | ≤ 1000
13 | CC(C)S(=O)(=O)n1ccc(S(=O)(=O)n2nc(N3CCN(c4ncc(F)cc4F)CC34CC4)c3c(Cl)cccc32)c1 [Compound 141, 4-chloro-3-[7-(3,5-difluoro-2-pyridyl)-4,7-diazaspiro [2.5]octan-4-yl]-1-(1-isopropylsulfonylpyrrol-3-yl) sulfonyl-indazole] | ≤ 1000
14 | CC(F)(F)c1ccc(S(=O)(=O)n2nc(N3CCN(C(C)(CF)CF)CC34CC4)c3c(Cl)cccc32)cc1 [Compound 130, 4-chloro-1-[4-(1,1-difluoroethyl)phenyl]sulfonyl-3-[7-[2-fluoro-1-(fluoromethyl)-1-methyl-ethyl]-4,7-diazaspiro [2.5]octan-4-yl]indazole] | ≤ 1000
15 | CC(C)S(=O)(=O)c1ccc(S(=O)(=O)n2nc(N3CCN(c4ncc(Cl)cn4)CC34CC4)c3c(Cl)cccc32)s1 [Compound 43, 4-chloro-3-[7-(5-chloropyrimidin-2-yl)-4,7-diazaspiro [2.5]octan-4-yl]-1-[(5-isopropylsulfonyl-2-thienyl)sulfonyl]indazole] | ≤ 1000
16 | CC(C)S(=O)(=O)n1ccc(S(=O)(=O)n2nc(N3CCN(c4ncc(F)cc4F)CC34CC4)c3c(Cl)ccc(F)c32)c1 [Compound 142, 4-chloro-3-[7-(3,5-difluoro-2-pyridyl)-4,7-diazaspiro [2.5]octan-4-yl]-7-fluoro-1-(1-isopropylsulfonylpyrrol-3-yl) sulfonyl-indazole] | ≤ 1000
17 | CC(C)S(=O)(=O)c1ccc(S(=O)(=O)n2nc(N3CCN(C(=O)C4CC4)CC34CC4)c3c(Cl)cccc32)cc1 [Compound 57, [4-[4-chloro-1-(4-isopropylsulfonylphenyl)sulfonyl-indazol-3-yl]-4,7-diazaspiro[2.5]octan-7-yl]-cyclopropyl-methanone] | ≤ 1000
18 | CC(C)(C)S(=O)(=O)n1ccc(S(=O)(=O)n2nc(N3CCN(c4ncc(F)cn4)CC34CC4)c3c(Cl)cc(F)cc32)c1 [Compound 171, 1-((1-(tert-butylsulfonyl)-1H-pyrrol-3-yl)sulfonyl)-4-chloro-6-fluoro-3-(7-(5-fluoropyrimidin-2-yl)-4,7-diazaspiro [2.5]octan-4-yl)-1H-indazole] | ≤ 1000
19 | CC(C)S(=O)(=O)c1nc(S(=O)(=O)n2nc(N3CCN(c4ncc(Cl)cc4F)CC34CC4)c3c(F)ccc(F)c32)cs1 [Compound 193, 4-[3-[7-(5-chloro-3-fluoro-2-pyridyl)-4,7-diazaspiro [2.5]octan-4-yl]-4,7-difluoro-indazol-1-yl]sulfonyl-2-isopropylsulfonyl-thiazole] | 1000 to 10000
20 | CC(C)S(=O)(=O)n1ccc(S(=O)(=O)n2nc(N3CCCC34CC4)c3c(Cl)cc(F)cc32)c1 [Compound 188, 3-(4-azaspiro [2.4]heptan-4-yl)-4-chloro-6-fluoro-1-(1-isopropylsulfonylpyrrol-3-yl) sulfonyl-indazole] | ≤ 1000
